Laboratory results: US20080249028A1, “Thyrotropin-Releasing Hormone Analogs and Method of Use” (Roger Williams Hospital, priority 2005, published 2008)
Where a SMILES comes first, the peptide text is derived from it. [ ]: non-standard residue; d: D form. pGlu = O=C1CC[CH](C(=O)O)N1

Test system: STZ-induced hyperglycemic rats
Assay: Effect on STZ-induced hyperglycemia in rats (blood glucose level)
Type: in vivo, rat
Experimental: Male Sprague-Dawley rats (S.D. 180 g) were used in the experiments described below. The animals lived in individual metabolism cages with free access to food and water, while food and body weight were monitored daily. Peripheral blood samples (approximately 10 μl) were obtained from the tail vein of the animals. The blood glucose levels were measured by using Accu-Check Blood Glucose Meter (Roche Diagnosetics Corporation, IN). Beta cell function was evaluated once every two days over a 2-week period by an individual unaware of the treatment group. Animals were evaluated separately for blood glucose level, food intake and body weight. The endpoint check was pancreatic insulin content and pancreatic beta cell number.
Streptozotocin (STZ) was used to chemically induce damage in pancreatic function in order to create a hyperglycemic state in the animals. Eight-week old male Sprague-Dawley rats (200.00 g±10 g) were injected with STZ by intraperitoneal (i.p.) (65 mg/kg body weight (BW)) to create hyperglycemic animals (24 to 48 hours). Blood glucose levels were monitored daily. Onset of hyperglycemia occurred usually about 24 to 48 hours after STZ administration.
[…] the seventh day or on the third day after STZ administration, which allowed for examination of the TRH/TRH analog treatment and the degree of pancreatic damage in the diabetic animal. Again, food intake, body weight and blood glucose levels of each of the animals were monitored. When hyperglycemia was determined to be reversed by TRH/TRH analog, the animal was sacrificed. Blood samples were collected for insulin assay and the pancreas and muscles were collected for further pathological and physiological tests.
The figures shown in the tables are blood glucose levels (mg/dL; i.e., milligrams of glucose per deciliter of blood).

[1] = Table 1, rats, STZ + compound i.p., Day 1
[2] = Table 1, rats, STZ + compound i.p., Day 2
[3] = Table 1, rats, STZ + compound i.p., Day 4
[4] = Table 1, rats, STZ + compound i.p., Day 9
[5] = Table 1, rats, STZ + compound i.p., Day 15
[6] = Table 1, rats, STZ + compound i.p., Day 22
[7] = Table 1, rats, STZ + compound i.p., Day 29
[8] = Table 1, rats, STZ + compound i.p., Day 39
[9] = Table 1, rats, STZ + compound i.p., Day 43
[10] = Table 1, rats, STZ + compound i.p., Day 50
[11] = Table 1, rats, STZ + compound i.p., Day 53
[12] = Table 1, rats, STZ + compound i.p., Day 56
[13] = Table 1, rats, STZ + compound i.p., Day 60
[14] = Table 1, rats, STZ + compound i.p., Day 64

Question: Which blood glucose level [1] does the source give for `NC(=O)C1CCCN1C(=O)C(Cc1ccccc1)NC(=O)C1CCC(=O)N1` (stereo not drawn) [PheT, 1-{3-phenyl-2-[(5-oxo-pyrrolidine-2-carbonyl)-amino]-propionyl}-pyrrolidine-2-carboxylic acid amide] ([pGlu]-Phe-Pro-NH2; configuration not given here) here?
Answer: Its blood glucose level is 105.8 mg/dL.

Question: What about the blood glucose level [2] of the same compound?
Answer: The blood glucose level was 316.8 mg/dL.

Question: What about the blood glucose level [3] of the same compound?
Answer: Its blood glucose level is 419.8 mg/dL.

Question: What about the blood glucose level [4] of the same compound?
Answer: The blood glucose level was 130.8 mg/dL.

Question: And the blood glucose level [5]?
Answer: Its blood glucose level is 234.4 mg/dL.

Question: And the blood glucose level [6]?
Answer: The blood glucose level was 359.2 mg/dL.

Question: And the blood glucose level [7]?
Answer: Its blood glucose level is 407.2 mg/dL.

Question: What about the blood glucose level [8] of the same compound?
Answer: The blood glucose level was 434.8 mg/dL.

Question: And the blood glucose level [9]?
Answer: Its blood glucose level is 432 mg/dL.

Question: What about the blood glucose level [10] of the same compound?
Answer: The blood glucose level was 478 mg/dL.

Question: What about the blood glucose level [11] of the same compound?
Answer: Its blood glucose level is 424 mg/dL.

Question: What about the blood glucose level [12] of the same compound?
Answer: Its blood glucose level is 355 mg/dL.

Question: And the blood glucose level [13]?
Answer: The blood glucose level was 381 mg/dL.

Question: And the blood glucose level [14]?
Answer: The blood glucose level was 414 mg/dL.

Question: How did the blood glucose level [1] turn out when `NC(=O)CNC(=O)C1CCCN1C(=O)C(Cc1c[nH]cn1)NC(=O)C1CCC(=O)N1` (stereo not drawn) [Glp, Glp-His-Pro-Gly-NH2] ([pGlu]HPG-NH2; configuration not given here) was run?
Answer: The blood glucose level was 103.8 mg/dL.

Question: What about the blood glucose level [2] of the same compound?
Answer: Its blood glucose level is 396 mg/dL.

Question: And the blood glucose level [3]?
Answer: The blood glucose level was 446 mg/dL.

Question: And the blood glucose level [4]?
Answer: Its blood glucose level is 275 mg/dL.

Question: What about the blood glucose level [5] of the same compound?
Answer: The blood glucose level was 348 mg/dL.

Question: And the blood glucose level [6]?
Answer: Its blood glucose level is 419 mg/dL.

Question: What about the blood glucose level [7] of the same compound?
Answer: Its blood glucose level is 431 mg/dL.

Question: What about the blood glucose level [8] of the same compound?
Answer: Its blood glucose level is 448 mg/dL.

Question: What about the blood glucose level [9] of the same compound?
Answer: Its blood glucose level is 423 mg/dL.

Question: And the blood glucose level [10]?
Answer: Its blood glucose level is 416 mg/dL.

Question: What about the blood glucose level [11] of the same compound?
Answer: The blood glucose level was 432 mg/dL.

Question: And the blood glucose level [12]?
Answer: The blood glucose level was 400 mg/dL.

Question: What about the blood glucose level [13] of the same compound?
Answer: The blood glucose level was 468 mg/dL.

Question: And the blood glucose level [14]?
Answer: The blood glucose level was 421 mg/dL.

Question: Which results are given for `CN(N=O)C(=O)N[C@@H]1[C@@H](O)[C@H](O)[C@@H](CO)O[C@@H]1O` [S, streptozotocin, reference compound]?
Answer: blood glucose level (Table 1, rats, STZ alone, Day 1): 99.8 mg/dL; blood glucose level (Table 1, rats, STZ alone, Day 2): 313.2 mg/dL; blood glucose level (Table 1, rats, STZ alone, Day 4): 433.6 mg/dL; blood glucose level (Table 1, rats, STZ alone, Day 9): 320 mg/dL; blood glucose level (Table 1, rats, STZ alone, Day 15): 393.8 mg/dL; blood glucose level (Table 1, rats, STZ alone, Day 22): 463.8 mg/dL; blood glucose level (Table 1, rats, STZ alone, Day 29): 522.4 mg/dL; blood glucose level (Table 1, rats, STZ alone, Day 39): 537.2 mg/dL; blood glucose level (Table 1, rats, STZ alone, Day 43): 466.8 mg/dL; blood glucose level (Table 1, rats, STZ alone, Day 50): 485 mg/dL; blood glucose level (Table 1, rats, STZ alone, Day 53): 460 mg/dL; blood glucose level (Table 1, rats, STZ alone, Day 56): 453 mg/dL; blood glucose level (Table 1, rats, STZ alone, Day 60): 542 mg/dL; blood glucose level (Table 1, rats, STZ alone, Day 64): 482 mg/dL; blood glucose level (Table 2, rats, STZ alone, Day 1): 98 mg/dL; blood glucose level (Table 2, rats, STZ alone, Day 4): 103 mg/dL; blood glucose level (Table 2, rats, STZ alone, Day 7): 506 mg/dL; blood glucose level (Table 2, rats, STZ alone, Day 11): 494 mg/dL; blood glucose level (Table 2, rats, STZ alone, Day 15): 329 mg/dL; blood glucose level (Table 2, rats, STZ alone, Day 18): 432 mg/dL; blood glucose level (Table 2, rats, STZ alone, Day 21): 453 mg/dL; blood glucose level (Table 2, rats, STZ alone, Day 25): 480 mg/dL; blood glucose level (Table 2, rats, STZ alone, Day 28): 499 mg/dL; blood glucose level (Table 2, rats, STZ alone, Day 32): 529 mg/dL; blood glucose level (Table 2, rats, STZ alone, Day 35): 499 mg/dL; blood glucose level (Table 2, rats, STZ alone, Day 39): 508 mg/dL; blood glucose level (Table 2, rats, STZ alone, Day 42): 549 mg/dL; blood glucose level (Table 2, rats, STZ alone, Day 46): 536 mg/dL; blood glucose level (Table 2, rats, STZ alone, Day 54): 500 mg/dL; blood glucose level (Table 2, rats, STZ alone, Day 61): 582 mg/dL; onset of hyperglycemia after STZ administration (rats, STZ 65 mg/kg BW i.p.): 24 to 48 h
